From patent US20240382497A1, “PROPHYLACTIC OR THERAPEUTIC AGENT FOR HYPOXIC INJURY, ISCHAEMIA-REPERFUSION INJURY AND INFLAMMATION, CELL PROTECTION AGENT FOR TRANSPLANTATION, AND BIO-PRESERVATION AGENT” (priority 2018, published 2024)

Legend:
[1] = test system: High Mobility Group Box 1 (HMGB1); assay: Blood HMGB1 in LPS sepsis model (ELISA); assay type: in vivo, mouse; settings: about 80 mg/kg i.p., 16 hr, versus saline
Procedure: (§1) Lipopolysaccharide (LPS) (0.6 mg/kg) was intraperitoneally administered to male Balb/c mice (about 2-3 months old) to generate a sepsis model. Immediately after the LPS administration, 200 μl (about 80 mg/kg) of a solution prepared by diluting various heterocyclic compounds and isothiocyanate compounds 100 times with saline was intraperitoneally administered. Blood samples were collected 60 min after LPS and compound administration, EDTA plasma was prepared, and the blood level of inflammatory cytokine TNF-a was measured by the ELISA method.
A sepsis model mouse was prepared by the same method as in Example 18. Immediately after the LPS administration, 200 μl (about 80 mg/kg) of a thiazoline-related compound (2MT) solution prepared by diluting 100 times with saline was intraperitoneally administered. Blood samples were collected 16 hr after administration of LPS and thiazoline-related compound (2MT), EDTA plasma was prepared, and the blood level of inflammatory mediator High Mobility Group Box 1 (HMGB1) was measured by the ELISA method.

Male C57/BL6N mice [2] = assay: Body surface temperature on odor presentation (thermography); assay type: in vivo, mouse; settings: filter paper scented with 271 μmol odor, mean of 20 min, versus no odor
Procedure: An influence of a thiazoline-related compound and an odor molecule that induces learned fear on the body surface temperature was analyzed. Male C57/BL6N mice (about 3 months old) were anesthetized with pentobarbital (50 mg/kg, i.p.) 2-3 days before the test, and the back hair was depilated with depilatory cream. On the day of testing, each mouse was placed in a test cage and, after acclimation for 10 min, a filter paper scented with 271 μmol of a thiazoline-related compound (2-methyl-2-thiazoline; 2MT) or an odor molecule that induces learned fear (anisole) was presented in the test cage, and changes in the body surface temperature on the back were analyzed using a thermography camera (NEC Avio). The value of the body surface temperature change was calculated as the difference between the mean body surface temperature for 10min when water was presented and the mean body surface temperature for 20 min when each odor molecule was presented, and the change in the body surface temperature without odor was set to 0. […]
An influence of various thiazoline-related compounds on the body surface temperature was analyzed by a method similar to that in Example 1. As a control, an influence of an odor molecule that induces learned fear was also analyzed. […]

[3] = test system: Trpa1 knockout and littermate hetero mice; assay: Survival time in 4% oxygen of Trpa1 knockout mouse after odor presentation; assay type: in vivo; settings: 271 μmol odor presented 10 min, versus saline
Procedure: The thiazoline-related compound (2MT) was presented for 10 min to about 3-month-old male Trpa1 knockout and littermate hetero mice. Thereafter, the mice were placed in a tight box in which the oxygen concentration was adjusted to 4%, and the survival time of the mice was measured up to 30 min at maximum. The odor was presented by placing a filter paper scented with 271 μmol of 2MT in the breeding cage. As a control, an experiment presenting a filter paper dropped with saline was also performed (no odor).

[4] = test system: cerebral ischemia-reperfusion injury model mouse; assay: Cerebral ischemia-reperfusion injury, MAP2-unstained area; assay type: in vivo; settings: about 80 mg/kg i.p. at the reperfusion, two days after reperfusion, versus saline
Procedure: The bilateral common carotid arteries of about 3-month-old C57/BL6 mouse were ligated by clips to induce cerebral ischemia injury, and the blood was reperfused by removing the clips 30 min later. A thiazoline-related compound (2MT) solution (200 μl, about 80 mg/kg), or saline, as a control, was intraperitoneally administered at the reperfusion. Two days after the reperfusion, the brain tissue of the mouse was removed, brain sections were prepared, and the injured region was analyzed by antibody staining with Microtubule-associated protein 2 (MAP2).

Male C57/BL6N mice [5] = assay: Skin blood flow on odor presentation (laser Doppler); assay type: in vivo, mouse; settings: filter paper scented with 271 μmol odor, 20 min, versus no odor
Procedure: An influence of a thiazoline-related compound and an odor molecule that induces learned fear on the skin blood flow was analyzed. Male C57/BL6N mice (about 3 months old) were anesthetized with pentobarbital (50 mg/kg, i.p.) about 5 days before the test, and the back hair was depilated with depilatory cream. A mouse restrainer having an observation window was prepared using a 50 ml tube, the mice were trained to enter the restrainer from the day after hair removal, and acclimated by performing this operation until the day before the test. On the day of testing, each mouse was placed in a restrainer, and a laser Doppler probe was attached to the shaved back of the mouse with an adhesive tape. After confirming that the blood flow signal became stable, (1) no odor was presented for 10 min, (2) Eugenol odor was presented for 10 min, (3) thiazoline-related compound (2MT) or an odor that induces learned fear (Anis-FS+) was presented for 20 min, and changes in the blood flow were measured. […] The blood flow rate was measured every 10 seconds using a laser Doppler blood flow meter (ADVANCE CO., LTD. ALF21D). The mean skin blood flow without odor (10 min) or with the presentation of a thiazoline-related compound or an odor that induces learned fear (20 min) was calculated, and the mean skin blood flow was shown as a relative value with the mean skin blood flow without odor as 100%.

sepsis model mouse = assay: Survival time in LPS sepsis model; assay type: in vivo; settings: about 80 mg/kg i.p., versus saline
Procedure: as §1
A sepsis model mouse was prepared by the same method as in Example 18. Immediately after the LPS administration, 200 μl (about 80 mg/kg) of a thiazoline-related compound (2MT) solution prepared by diluting 100 times with saline was intraperitoneally administered. The survival time of the mouse was measured when the thiazoline-related compound (2MT) was administered and when saline, as a control, was administered (saline).

## CC1=NCCS1 [2MT, 2-methyl-2-thiazoline]
[1]
  blood concentration of HMGB1: decreased the blood concentration of inflammatory mediator HMGB1
Male C57/BL6N mice [2]
  changes in the body surface temperature: clear decrease in the body surface temperature
[3]
  survival time in 4% oxygen: did not increase significantly
[4]
  area of the injured region of the brain (not stained with MAP2): reduce cerebral ischemia-reperfusion injury
Male C57/BL6N mice [5]
  skin blood flow: decreased the skin blood flow
Sepsis model mouse
  survival time in sepsis model: extending the survival time
